Data published in paper PMC9673926, “Nucleotide binding as an allosteric regulatory mechanism for Akkermansia muciniphila β-N-acetylhexosaminidase Am2136” (Gut Microbes, 2022).

Experiments:
[1] = target: T1, Am2136 WT dialyzed (Akkermansia muciniphila, UniProt B2UPR7); test: Metal ion effect on enzyme hydrolysis activity; format: biochemical; conditions: for Vmax / kcat/Km: WT dialyzed + 2 mM metal ion, substrate pNP-β-GlcNAc; for effect of metal ion on Am2136 catalytic activity: 2 mM metal ion
T1 construct: The coding region (residue Q20-L756) of Am2136 without signal peptide was based on UniProt; 6XHis (N); made in house; host or cells: E. coli BL21 (DE3)
T1 sequence (B2UPR7 20-756): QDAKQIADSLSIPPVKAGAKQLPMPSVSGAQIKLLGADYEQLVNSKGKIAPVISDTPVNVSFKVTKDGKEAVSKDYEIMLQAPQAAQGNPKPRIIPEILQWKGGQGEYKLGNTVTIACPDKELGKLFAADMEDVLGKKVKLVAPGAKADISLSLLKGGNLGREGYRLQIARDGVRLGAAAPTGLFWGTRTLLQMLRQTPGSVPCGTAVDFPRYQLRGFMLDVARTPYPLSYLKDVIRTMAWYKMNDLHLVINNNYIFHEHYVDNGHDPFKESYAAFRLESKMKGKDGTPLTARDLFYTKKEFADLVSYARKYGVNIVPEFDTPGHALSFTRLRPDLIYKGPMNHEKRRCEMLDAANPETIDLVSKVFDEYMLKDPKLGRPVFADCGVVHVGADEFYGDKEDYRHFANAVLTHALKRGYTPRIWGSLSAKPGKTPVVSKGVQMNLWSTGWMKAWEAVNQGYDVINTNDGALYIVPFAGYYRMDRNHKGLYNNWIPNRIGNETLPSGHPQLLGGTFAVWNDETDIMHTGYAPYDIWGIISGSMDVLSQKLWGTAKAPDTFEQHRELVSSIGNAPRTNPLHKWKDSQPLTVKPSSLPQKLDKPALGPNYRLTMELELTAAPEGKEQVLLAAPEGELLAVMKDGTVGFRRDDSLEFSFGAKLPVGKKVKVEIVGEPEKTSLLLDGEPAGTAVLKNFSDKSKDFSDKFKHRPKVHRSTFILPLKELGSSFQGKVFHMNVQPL
Procedure: The purified protein was added with the final concentration of 5 mM EDTA and incubated on ice for 20 min. Then the protein was dialyzed with the buffer solution (2 mM EDTA, 25 mM Tris, 150 mM NaCl, 5% Glycerol, pH 8.0) at 4°C for 4 h at a volume ratio of 1:350. After that, the protein was dialyzed with the EDTA-free buffer for 4 h and repeated twice.
The dialyzed protein was incubated with other metal ions on ice for 5 min. The 50 μL reaction mixture contains 2 μM protein, 0.125–4 mM p-nitrophenyl (pNP)-β-GlcNAc, 2 mM metal ions (MgCl2, CaCl2, CuCl2, ZnCl2, CoCl2), 25 mM Tris pH 8.0 and 150 mM NaCl.

[2] = target: T2, Am2136 WT (Akkermansia muciniphila, UniProt B2UPR7); test: Nucleotide binding affinity by intrinsic fluorescence; conditions: WT dialyzed
T2 construct: The coding region (residue Q20-L756) of Am2136 without signal peptide was based on UniProt; 6XHis (N); made in house; host or cells: E. coli BL21 (DE3)
T2 sequence (B2UPR7 20-756): as above
Procedure: The nucleotide binding ability was determined on Fluorescence Spectrometer Duetta (HORIBA) by measuring the change of peak intensity. The fluorescence was excited at 286 nm and emitted at 336 nm. And the measurement was processed under 400 V voltage with 2.5 nm excitation slit and 5 nm emission slit. […] The sample was incubated at 4°C for 5 min before testing.

[3] = target: T3, Am2136 (Akkermansia muciniphila, UniProt B2UPR7); test: Oligosaccharide hydrolysis, released GlcNAc by HPLC-QqQ-MS; format: biochemical; conditions: 1.2 mM substrate, 4 μM Am2136, 37°C, 240 min
T3 construct: The coding region (residue Q20-L756) of Am2136 without signal peptide was based on UniProt; 6XHis (N); made in house; host or cells: E. coli BL21 (DE3)
T3 sequence (B2UPR7 20-756): as above
Procedure: The 30 μL reaction mixture contains 1.2 mM oligosaccharides (Sigma), 4 μM proteins, 150 mM NH4Ac pH 8.0. The qualitative and quantitative analyses were performed by high-performance liquid chromatography-tandem triple quadrupole mass spectrometry (HPLC-QqQ-MS) (Agilent 1260 HPLC system and 6460 QqQ system, Agilent Technologies, USA). The separation was performed on a Chromplus C18 column (4.6 × 250 mm, 5 μm) at 25°C. The samples were isocratic eluted with 0.1% formic acid in water and acetonitrile (80:20, v/v) at a flow rate of 0.5 mL/min with an injection volume of 5 μL. The mass spectrometer was operated in the electron spray ionization mode with drying gas temperature of 300°C, N2 gas flow at 11 L/min, nebulizer pressure of 15 psi, and capillary voltage of 4000 V.
Qualitative analysis was carried out by MS2 full-scan mode, while quantitative analysis was performed by multiple reaction monitoring (MRM) in positive ionization mode. Amygdalin (IS) was used as internal standard, and the sample was prepared by adding 20 μL internal standard (116.96 μM) and 170 μL water to 10 μL reaction mixture. The ion transitions were chosen as m/z 222.0→203.9 for GlcNAc and m/z 458.1→296.0 for IS. The fragmentor voltage values of GlcNAc and IS were set to 70 and 130 V, respectively. The collision energies of GlcNAc and IS were set to 1 and 10 eV, respectively. The signal acquisition and peak integration were performed using the MassHunter Qualitative Analysis Software (Agilent, USA). The concentration of GlcNAc in each sample was determined by using the established calibration curve (y = 0.768x + 2.4873) made from the standard compound.

[4] = substrate: CC(=O)N[C@H]1[C@H](Oc2ccc([N+](=O)[O-])cc2)O[C@H](CO)[C@@H](O)[C@@H]1O; test: purified protein, by the assay type; conditions: pH 8.0; 37.0 °C

[Ca+2].[Cl-].[Cl-] [Ca^2+, CaCl2]
Vmax [1]: 447 ± 14 µmol/min | kcat/Km [1]: 128000 ± 2000 M⁻¹ s⁻¹ | effect of ion on GDP binding to Am2136 [2]: did not exhibit obvious behavioral effect on GDP binding

[Cl-].[Cl-].[Co+2] [Co^2+, CoCl2]
effect of metal ion on Am2136 catalytic activity [1]: significant inhibitory effects

[Cl][Cu][Cl] [Cu^2+, CuCl2]
effect of metal ion on Am2136 catalytic activity [1]: significant inhibitory effects

CC(=O)N[C@H]1[C@H](O[C@@H]2C(O)O[C@H](CO)[C@@H](O)[C@@H]2O)O[C@H](CO)[C@@H](O)[C@@H]1O (stereo partly drawn) [GlcNAc-(β1,2)Man]
GlcNAc released ([3]; with 1 mM GDP): 851.33 µM | GlcNAc released ([3]; without GDP): 671 µM

CC(=O)N[C@H]1[C@H](OC[C@H]2O[C@@H](O[C@H]3[C@H](O)[C@@H](O)C(O)O[C@@H]3CO)[C@H](O)[C@@H](O)[C@H]2O)O[C@H](CO)[C@@H](O)[C@@H]1O (stereo partly drawn) [GlcNAc-(β1,6)Gal-(β1,4)Glc]
GlcNAc released ([3]; with 1 mM GDP): 712.55 µM | GlcNAc released ([3]; without GDP): 549 µM

CC(=O)N[C@H]1[C@@H](Oc2ccc([N+](=O)[O-])cc2)O[C@H](CO[C@@H]2O[C@H](CO)[C@@H](O)[C@H](O)[C@H]2NC(C)=O)[C@H](O)[C@@H]1O [GlcNAc-(β1,6)GalNAc-α-pNP]
GlcNAc released ([3]; with 1 mM GDP): 451.25 µM | GlcNAc released ([3]; without GDP): 308 µM

COC1O[C@H](CO)[C@H](O)[C@H](O[C@@H]2O[C@H](CO)[C@@H](O)[C@H](O)[C@H]2NC(C)=O)[C@H]1O (stereo partly drawn) [Methyl GlcNAc-(β1,3)Gal]
GlcNAc released ([3]; with 1 mM GDP): 610.53 µM | GlcNAc released ([3]; without GDP): 448 µM

[Cl-].[Cl-].[Mg+2] [Mg^2+, MgCl2]
Vmax [1]: 435 ± 9 µmol/min | kcat/Km [1]: 151000 ± 3000 M⁻¹ s⁻¹ | effect of ion on GDP binding to Am2136 [2]: did not exhibit obvious behavioral effect on GDP binding

[Cl-].[Cl-].[Zn+2] [Zn^2+, ZnCl2]
effect of metal ion on Am2136 catalytic activity [1]: significant inhibitory effects

B1: R592A (Akkermansia muciniphila ATCC BAA-835; R592A) (protein)
chain: QDAKQIADSLSIPPVKAGAKQLPMPSVSGAQIKLLGADYEQLVNSKGKIAPVISDTPVNVSFKVTKDGKEAVSKDYEIMLQAPQAAQGNPKPRIIPEILQWKGGQGEYKLGNTVTIACPDKELGKLFAADMEDVLGKKVKLVAPGAKADISLSLLKGGNLGREGYRLQIARDGVRLGAAAPTGLFWGTRTLLQMLRQTPGSVPCGTAVDFPRYQLRGFMLDVARTPYPLSYLKDVIRTMAWYKMNDLHLVINNNYIFHEHYVDNGHDPFKESYAAFRLESKMKGKDGTPLTARDLFYTKKEFADLVSYARKYGVNIVPEFDTPGHALSFTRLRPDLIYKGPMNHEKRRCEMLDAANPETIDLVSKVFDEYMLKDPKLGRPVFADCGVVHVGADEFYGDKEDYRHFANAVLTHALKRGYTPRIWGSLSAKPGKTPVVSKGVQMNLWSTGWMKAWEAVNQGYDVINTNDGALYIVPFAGYYRMDRNHKGLYNNWIPNRIGNETLPSGHPQLLGGTFAVWNDETDIMHTGYAPYDIWGIISGSMDVLSQKLWGTAKAPDTFEQHRELVSSIGNAPATNPLHKWKDSQPLTVKPSSLPQKLDKPALGPNYRLTMELELTAAPEGKEQVLLAAPEGELLAVMKDGTVGFRRDDSLEFSFGAKLPVGKKVKVEIVGEPEKTSLLLDGEPAGTAVLKNFSDKSKDFSDKFKHRPKVHRSTFILPLKELGSSFQGKVFHMNVQPL
Km [4]: 1480 ± 60 µM

B2: P595A+H597A (Akkermansia muciniphila ATCC BAA-835; H597A/P595A) (protein)
chain: QDAKQIADSLSIPPVKAGAKQLPMPSVSGAQIKLLGADYEQLVNSKGKIAPVISDTPVNVSFKVTKDGKEAVSKDYEIMLQAPQAAQGNPKPRIIPEILQWKGGQGEYKLGNTVTIACPDKELGKLFAADMEDVLGKKVKLVAPGAKADISLSLLKGGNLGREGYRLQIARDGVRLGAAAPTGLFWGTRTLLQMLRQTPGSVPCGTAVDFPRYQLRGFMLDVARTPYPLSYLKDVIRTMAWYKMNDLHLVINNNYIFHEHYVDNGHDPFKESYAAFRLESKMKGKDGTPLTARDLFYTKKEFADLVSYARKYGVNIVPEFDTPGHALSFTRLRPDLIYKGPMNHEKRRCEMLDAANPETIDLVSKVFDEYMLKDPKLGRPVFADCGVVHVGADEFYGDKEDYRHFANAVLTHALKRGYTPRIWGSLSAKPGKTPVVSKGVQMNLWSTGWMKAWEAVNQGYDVINTNDGALYIVPFAGYYRMDRNHKGLYNNWIPNRIGNETLPSGHPQLLGGTFAVWNDETDIMHTGYAPYDIWGIISGSMDVLSQKLWGTAKAPDTFEQHRELVSSIGNAPRTNALAKWKDSQPLTVKPSSLPQKLDKPALGPNYRLTMELELTAAPEGKEQVLLAAPEGELLAVMKDGTVGFRRDDSLEFSFGAKLPVGKKVKVEIVGEPEKTSLLLDGEPAGTAVLKNFSDKSKDFSDKFKHRPKVHRSTFILPLKELGSSFQGKVFHMNVQPL
Km [4]: 1580 ± 70 µM
